Measured values from PubChem BioAssay AID1963865 (Molecular Pharmacology Branch, DTP, NCI, 2024).

Test system: KRAS PDC multicell spheroid viability
Test: Anticancer human tumor 825966-067-R-J1-PDC patient-derived colon carcinoma cell line growth inhibition [KRAS2]
Conditions: for IC50: curve of first compound; for viability, T/C: stronger effect = lower value
In short: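 KRAS-mutant tumor cells were grown as spheroids with HUVEC endothelial cells and human MSCs as stroma. Targeted agents were tested alone and with KRAS pathway inhibitors. Doses started at or near clinical Cmax, or 10 microM, descending half-log.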

[1] = second compound 0.1 µM, first compound 0.0316 µM
[2] = second compound 0.1 µM, first compound 0.1 µM
[3] = second compound 0.1 µM, first compound 0.316 µM
[4] = second compound 0.1 µM, first compound 1 µM
[5] = second compound 0.1 µM, first compound 3.16 µM
[6] = second compound 0.1 µM, first compound 10 µM
[7] = second compound 0.316 µM, first compound 0.0316 µM
[8] = second compound 0.316 µM, first compound 0.1 µM
[9] = second compound 0.316 µM, first compound 0.316 µM
[10] = second compound 0.316 µM, first compound 1 µM
[11] = second compound 0.316 µM, first compound 3.16 µM
[12] = second compound 0.316 µM, first compound 10 µM
[13] = second compound 1 µM, first compound 0.0316 µM
[14] = second compound 1 µM, first compound 0.1 µM
[15] = second compound 1 µM, first compound 0.316 µM
[16] = second compound 1 µM, first compound 1 µM
[17] = second compound 1 µM, first compound 3.16 µM
[18] = second compound 1 µM, first compound 10 µM
[19] = second compound 3.16 µM, first compound 0.0316 µM
[20] = second compound 3.16 µM, first compound 0.1 µM
[21] = second compound 3.16 µM, first compound 0.316 µM
[22] = second compound 3.16 µM, first compound 1 µM
[23] = second compound 3.16 µM, first compound 3.16 µM
[24] = second compound 3.16 µM, first compound 10 µM
[25] = second compound 10 µM, first compound 0.0316 µM
[26] = second compound 10 µM, first compound 0.1 µM
[27] = second compound 10 µM, first compound 0.316 µM
[28] = second compound 10 µM, first compound 1 µM
[29] = second compound 10 µM, first compound 3.16 µM
[30] = second compound 10 µM, first compound 10 µM
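Further: spheroids exposed to compounds for 7 days.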
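Wherever viability, T/C is given: 100% = DMSO vehicle control viability.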

| SMILES | IC50 (second compound 0.1 µM) [µM] | IC50 (second compound 0.316 µM) [µM] | IC50 (second compound 1 µM) [µM] | IC50 (second compound 3.16 µM) [µM] | IC50 (second compound 10 µM) [µM] | viability, T/C [1] [%] | viability, T/C [2] [%] | viability, T/C [3] [%] | viability, T/C [4] [%] | viability, T/C [5] [%] | viability, T/C [6] [%] | viability, T/C [7] [%] | viability, T/C [8] [%] | viability, T/C [9] [%] | viability, T/C [10] [%] | viability, T/C [11] [%] | viability, T/C [12] [%] | viability, T/C [13] [%] | viability, T/C [14] [%] | viability, T/C [15] [%] | other results |
| --- | --- | --- | --- | --- | --- | --- | --- | --- | --- | --- | --- | --- | --- | --- | --- | --- | --- | --- | --- | --- | --- |
| COC(=O)c1ccc2c(C(=Nc3ccc(N(C)C(=O)CN4CCN(C)CC4)cc3)c3ccccc3)c(O)[nH]c2c1 + CC1OCC2(CCN(c3cnc(Sc4ccnc(N)c4Cl)c(N)n3)CC2)C1N | 0.739 | 1.61 | 0.611 | 0.57 | < 0.0316 | 100 | 77.4 | 83.1 | 38.8 | 0.34 | 0.23 | 83.5 | 85.1 | 84.3 | 88.5 | 0.25 | 0.21 | 96 | 83.1 | 92.5 | viability, T/C [16]: 19.6%; viability, T/C [17]: 0.22%; viability, T/C [18]: 0.2%; viability, T/C [19]: 89.7%; viability, T/C [20]: 92.2%; viability, T/C [21]: 86.4%; viability, T/C [22]: 15.2%; viability, T/C [23]: 0.17%; viability, T/C [24]: 0.19%; viability, T/C [25]: 24.4%; viability, T/C [26]: 32.6%; viability, T/C [27]: 5.99%; viability, T/C [28]: 2.24%; viability, T/C [29]: 0.2%; viability, T/C [30]: 0.32% |
| COc1cc(Nc2ncc3c(n2)-c2ccc(Cl)cc2C(c2c(F)cccc2OC)=NC3)ccc1C(=O)O + CC1OCC2(CCN(c3cnc(Sc4ccnc(N)c4Cl)c(N)n3)CC2)C1N | > 10 | > 10 | > 10 | > 10 | < 0.0316 | 132 | 144 | 125 | 154 | 154 | 135 | 127 | 111 | 147 | 143 | 154 | 133 | 129 | 145 | 141 | viability, T/C [16]: 122%; viability, T/C [17]: 119%; viability, T/C [18]: 103%; viability, T/C [19]: 64.6%; viability, T/C [20]: 127%; viability, T/C [21]: 107%; viability, T/C [22]: 74.1%; viability, T/C [23]: 101%; viability, T/C [24]: 123%; viability, T/C [25]: 14.9%; viability, T/C [26]: 10.9%; viability, T/C [27]: 22%; viability, T/C [28]: 20.2%; viability, T/C [29]: 18.5%; viability, T/C [30]: 39.6% |
| COc1cc2nccc(Oc3ccc(NC(=O)C4(C(=O)Nc5ccc(F)cc5)CC4)cc3)c2cc1OC + CC1OCC2(CCN(c3cnc(Sc4ccnc(N)c4Cl)c(N)n3)CC2)C1N | 1.61 | 1.71 | 1.69 | 1.61 | < 0.0316 | 89.8 | 105 | 94.7 | 79.9 | 7.16 | 8.74 | 97 | 102 | 85.8 | 87.1 | 5.92 | 10 | 109 | 98.1 | 78.6 | viability, T/C [16]: 85.7%; viability, T/C [17]: 7.28%; viability, T/C [18]: 5.65%; viability, T/C [19]: 83.5%; viability, T/C [20]: 87%; viability, T/C [21]: 90.3%; viability, T/C [22]: 81.6%; viability, T/C [23]: 4.94%; viability, T/C [24]: 4.14%; viability, T/C [25]: 45.5%; viability, T/C [26]: 48.5%; viability, T/C [27]: 43.4%; viability, T/C [28]: 23.1%; viability, T/C [29]: 1.1%; viability, T/C [30]: 0.8% |
